Tests used:
Format in all cases: in vivo
[1] = system: rice green leafhopper (nephotettix virescens); test: Rice green leafhopper on sprayed rice seedlings; conditions: 300 ppm, adults, after 72 hours
Procedure: II.12 Rice Green Leafhopper (nephotettix virescens)
Rice seedlings were cleaned and washed 24 hours before spraying. The active compounds were formulated in 50:50 acetone:water (vol/vol), and 0.1% (vol/vol) surfactant (EL 620) was added. Potted rice seedlings were sprayed with 5 ml test solution, air dried, placed in cages and inoculated with 10 adults. Treated rice plants were kept at about 28-29° C. and relative humidity of about 50-60%. Percent mortality was recorded after 72 hours.

[2] = system: green peach aphid (Myzus persicae); test: Green peach aphid, pepper plant leaf dip test; conditions: 300 ppm; pepper plants dipped; after 5 days
Source text: II.11 Green Peach Aphid (myzus persicae)
(§1) The active compounds were formulated in 50:50 acetone:water (vol/vol) and 100 ppm Kinetic™ surfactant.
Pepper plants in the 2nd leaf-pair stage (variety “California Wonder”) were infested with approximately 40 laboratory-reared aphids by placing infested leaf sections on top of the test plants. The leaf sections were removed after 24 hr. The leaves of the intact plants were dipped into gradient solutions of the test compound and allowed to dry. Test plants were maintained under fluorescent light (24 hour photoperiod) at about 25° C. and about 20-40% relative humidity. Aphid mortality on the treated plants, relative to mortality on check plants, was determined after 5 days.

[3] = system: silverleaf whitefly (bemisia argentifolii); test: Silverleaf whitefly, cotton cotyledon dip test; conditions: 300 ppm; cotyledons dipped; 3 days after treatment
Procedure: II.9 Silverleaf Whitefly (bemisia argentifolii)
as §1
Selected cotton plants were grown to the cotyledon state (one plant per pot). The cotyledons were dipped into the test solution to provide complete coverage of the foliage and placed in a well-vented area to dry. Each pot with treated seedling was placed in a plastic cup and 10 to 12 whitefly adults (approximately 3-5 day old) were introduced. The insects were collected using an aspirator and a Tygon® tubing connected to a barrier pipette tip. The tip containing the collected insects was then gently inserted into the soil containing the treated plant allowing insects to crawl out of the tip to reach the foliage for feeding. The cups were covered with a re-usable screened lid. Test plants were maintained in the holding room at about 25° C. and about 20-40% relative humidity for 3 days avoiding direct exposure to the fluorescent light (24 hour photoperiod) to prevent trapping of heat inside the cup. Mortality was assessed 3 days after treatment of the plants.

[4] = system: adult female rats; test: Acute oral rat toxicity study, single oral gavage, 14 days observation; conditions: three rats per study, single oral gavage dose 100 mg/kg bw
Procedure: Some representatives of the compounds according to the present invention have been tested in acute oral rat toxicity studies.
In these studies, test substances were administered to adult female rats by oral gavage for one time. The compounds were administered as a 1% b.w. suspension or the compound in a 1% aqueous carboxymethyl cellulose solution. In each study three rats were used. The animals were treated with a single dose of 100 mg/kg bw. […] After the 14 day observation period, the animals were sacrificed, dissected, and examined for gross pathological lesions.

COc1cc(CN2C(=O)c3cc(-c4ccc(F)cc4F)ccc3S2(=O)=O)ccn1 [I.19]
mortality in comparison with untreated controls [1]: over 75%

O=C1c2cc(-c3ccc(F)cc3F)ccc2S(=O)(=O)N1Cc1ccncc1 [I.20]
mortality in comparison with untreated controls [2]: over 75%

O=C1c2cc(-c3ccc(F)cc3F)ccc2S(=O)(=O)N1Cc1ccnc2cc(C(F)(F)F)ccc12 [I.28]
mortality in comparison with untreated controls [3]: over 75%

Cc1nccc(CN2C(=O)c3cc(-c4ccc(C(F)(F)F)cc4Cl)ccc3S2(=O)=O)c1C [I.34]
Lethality (cumulative) 0-5 h after treatment [4]: 0 | Lethality (cumulative) 1 d after treatment [4]: 0 | Lethality (cumulative) 2 d after treatment [4]: 0 | Lethality (cumulative) 7 d after treatment [4]: 0 | Lethality (cumulative) 14 d after treatment [4]: 1

Cc1nccc(CN2C(=O)c3cc(-c4ccc(Cl)cc4C(F)(F)F)ccc3S2(=O)=O)c1C [I.35]
Lethality (cumulative) 0-5 h after treatment [4]: 0 | Lethality (cumulative) 1 d after treatment [4]: 0 | Lethality (cumulative) 2 d after treatment [4]: 0 | Lethality (cumulative) 7 d after treatment [4]: 0 | Lethality (cumulative) 14 d after treatment [4]: 2

Source: patent US20110166162A1, “1,2-Benzisothiazole Compounds Useful for Combating Animal Pests” (priority 2007, published 2011)
